Data published in US6426355B1, “Heterocyclic carboxamide-containing thiourea inhibitors of herpes viruses containing phenylenediamine group” (American Home Products, priority 1998, dated 2002).
≈ marks a conversion by molar mass, not a printed value.

Experiments:
[1] = system: HCMV recombinant mutant virus (RV145); assay: HCMV microtiter plate assay (beta-glucuronidase reporter); assay type: cell-based, Human Cytomegalovirus; conditions: for IC50 (ug/ml) HCMV: HCMV in human foreskin fibroblasts; for IC50: Human betaherpesvirus 5, Fibroblast, read-out: IC50 (ug/ml) HCMV
How it was run: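 Replication was read out as virus-encoded β-glucuronidase activity, measured with a chromogenic or fluorogenic glucuronide substrate in cell lysates at 96 h post-infection. Infection of human foreskin fibroblasts with RV145 took place with compound present. IC50 was derived from a range of inhibitor amounts.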

[2] = system: HSV-1; assay: HSV Antiviral (ELISA) assay; assay type: cell-based; conditions: for IC50 (ug/ml) HSV: HSV-1 in Vero cells; for IC50: Human alphaherpesvirus 1, HSV-1 in Vero cells, read-out: IC50 (ug/ml) HSV
How it was run: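 Replication measured as glycoprotein D signal in fixed cells: anti-gD antibody plus β-galactosidase-linked secondary, fluorogenic substrate read at 365/450 nm. Vero cells (2% FBS DMEM) received compound 30 min pre-infection, HSV-1 MOI 0.006, ~24 h incubation; IC50 relative to no-compound fluorescence.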

[3] = system: VZV strain Ellen; assay: VZV Antiviral (ELISA) assay; assay type: cell-based; conditions: for IC50: Human alphaherpesvirus 3, VZV strain Ellen in HFF cells, read-out: IC50 (ug/ml) VZV; for inhibition at 10 µg/mL: Human alphaherpesvirus 3, read-out: % inhibition 10 ug/ml VZV, at 10 ug/ml, VZV strain Ellen in HFF cells
How it was run: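 Antiviral IC50 is derived by comparing fluorescence with and without compound after a three-day culture of VZV-infected plus uninfected foreskin fibroblasts. Replication is quantified by ELISA against glycoprotein II, using a β-galactosidase secondary and methyl umbelliferyl-β-D-galactoside.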

Row | Compound | IC50 (ug/ml) HCMV [1] [µg/mL] | IC50 (ug/ml) HSV [2] [µg/mL] | IC50 (ug/ml) VZV ([3]; VZV strain Ellen in HFF cells) [µg/mL] | % inhibition 10 ug/ml VZV ([3]; at 10 ug/ml, VZV strain Ellen in HFF cells) [%] | IC50 [1] [µg/mL] | IC50 [2] [µg/mL] | IC50 [3] [µg/mL] | inhibition at 10 µg/mL [3] [%]
1 | Cc1ccc(CCNC(=S)Nc2ccc(NC(=O)c3ccco3)cc2)cc1 [Example 605] | 0.062 (≈ 0.163 µM) | >10 | 10 (≈ 26.4 µM) |  |  |  |  | 
2 | O=C(Nc1ccc(NC(=S)NCCc2ccc(Br)cc2)cc1)c1csnn1 [Example 606] | 0.0023 (≈ 0.00497 µM) | >10 | >10 |  |  |  |  | 
3 | COc1cccc(CCNC(=S)Nc2ccc(NC(=O)c3ccco3)cc2)c1 [Example 607] | 0.09 (≈ 0.228 µM) | 8 (≈ 20.2 µM) | >10 |  |  |  |  | 
4 | O=C(Nc1ccc(NC(=S)NCCOc2ccccc2)cc1)c1ccco1 [Example 626] | 0.07 (≈ 0.184 µM) | 10 (≈ 26.2 µM) | >10 |  |  |  |  | 
5 | O=C(Nc1ccc(NC(=S)NCCOc2ccccc2)cc1)c1csnn1 [Example 627] | 0.014 (≈ 0.035 µM) | 10 (≈ 25 µM) | >10 |  |  |  |  | 
6 | O=C(Nc1ccc(CNC(=S)Nc2ccc(Cl)c(Cl)c2)cc1)c1csnn1 [Example 630] | 0.4 (≈ 0.912 µM) | >10 | 4 (≈ 9.12 µM) |  |  |  |  | 
7 | O=C(Nc1ccc(CNC(=S)Nc2ccc(Cl)c(C(F)(F)F)c2)cc1)c1csnn1 [Example 631] | 0.15 (≈ 0.318 µM) | 6 (≈ 12.7 µM) | 6 (≈ 12.7 µM) |  |  |  |  | 
8 | O=C(Nc1ccc(CNC(=S)Nc2cc(Cl)cc(Cl)c2)cc1)c1csnn1 [Example 635] | 0.15 (≈ 0.342 µM) | >10 | 4 (≈ 9.12 µM) |  |  |  |  | 
9 | COc1cccc(CCNC(=S)Nc2ccc(NC(=O)c3csnn3)cc2)c1 [Example 637] | 0.014 (≈ 0.0339 µM) | >10 | >10 |  |  |  |  | 
10 | Cc1ccc(CCNC(=S)Nc2ccc(NC(=O)c3csnn3)cc2)cc1 [Example 638] | 0.01 (≈ 0.0252 µM) | >10 | >10 |  |  |  |  | 
11 | COc1ccc(CCNC(=S)Nc2ccc(NC(=O)c3csnn3)cc2)cc1OC [Example 639] | 0.07 (≈ 0.158 µM) | >10 | >10 |  |  |  |  | 
12 | CC(=O)Nc1cc(Cl)cc(NC(=S)Nc2ccc(NC(=O)c3csnn3)cc2)c1 [Example 644] | 0.03 (≈ 0.0671 µM) | >10 | 8 (≈ 17.9 µM) |  |  |  |  | 
13 | O=C(Nc1ccc(NC(=S)NCCc2ccc(Cl)c(Cl)c2)cc1)c1csnn1 [Example 645] | 0.003 (≈ 0.00663 µM) | >10 | 10 (≈ 22.1 µM) |  |  |  |  | 
14 | CC(CCc1ccccc1)NC(=S)Nc1ccc(NC(=O)c2csnn2)cc1 (stereo not drawn) [Example 646] | 0.03 (≈ 0.0729 µM) | >10 | 2.5 (≈ 6.07 µM) |  |  |  |  | 
15 | CC(NC(=S)Nc1ccc(NC(=O)c2csnn2)cc1)c1ccc(Br)cc1 (stereo not drawn) [Example 647] | 0.007 (≈ 0.0151 µM) | >10 | 0.1 (≈ 0.216 µM) |  |  |  |  | 
16 | CC(NC(=S)Nc1ccc(NC(=O)c2ccncc2)cc1)c1ccc(F)cc1 (stereo not drawn) [Example 759] | >10 | >10 | 2 (≈ 5.07 µM) |  |  |  |  | 
17 | O=C(Nc1ccc(NC(=S)NCCc2cc(F)cc(C(F)(F)F)c2)cc1)c1csnn1 [Example 762] | 0.002 (≈ 0.00426 µM) | >10 | 1.5 (≈ 3.19 µM) |  |  |  |  | 

Row | Compound | IC50 (ug/ml) HCMV [1] [µg/mL] | IC50 (ug/ml) HSV [2] [µg/mL] | IC50 (ug/ml) VZV ([3]; VZV strain Ellen in HFF cells) [µg/mL] | % inhibition 10 ug/ml VZV ([3]; at 10 ug/ml, VZV strain Ellen in HFF cells) [%] | IC50 [1] [µg/mL] | IC50 [2] [µg/mL] | IC50 [3] [µg/mL] | inhibition at 10 µg/mL [3] [%]
18 | O=C(Nc1ccc(NC(=S)NCCc2cc(C(F)(F)F)ccc2F)cc1)c1csnn1 [Example 767] | 0.006 (≈ 0.0128 µM) | >10 | 1 (≈ 2.13 µM) |  |  |  |  | 
19 | CC(NC(=S)Nc1ccc(NC(=O)c2ccc3ccccc3n2)cc1)c1ccc(F)cc1 (stereo not drawn) [Example 796] | 4 (≈ 9 µM) | >10 | >7.5 |  |  |  |  | 
20 | O=C(Nc1ccc(NC(=S)Nc2cc(Cl)ccc2Cl)cc1)c1csnn1 [Example 866, [1,2,3,]Thiadiazole-4-carboxylic acid {4-[3-(2,5-dichloro-phenyl)-thioureido]-phenyl}-amide] | 0.035 (≈ 0.0825 µM) | >10 | >10 | 50 |  |  |  | 
21 | COc1c(Cl)cc(NC(=S)Nc2ccc(NC(=O)c3ccco3)cc2)cc1Cl [Example 875, Furan-2-carboxylic acid {4-[3-(3,5-dichloro-4-methoxy-phenyl)-thioureido]-phenyl}-amide] |  |  |  |  | > 2.2 | > 50 | > 10 | 18
22 | COc1cc(OC)c(NC(=S)Nc2ccc(NC(=O)c3ccco3)cc2)cc1Br [Example 879, Furan-2-carboxylic acid {4-[3-(5-bromo-2,4-dimethoxy-phenyl)-thioureido]-phenyl}-amide] |  |  |  |  | 0.3 (≈ 0.63 µM) | 4 (≈ 8.4 µM) | 10 (≈ 21 µM) | 65
23 | COc1ccc(NC(=S)Nc2ccc(NC(=O)c3csnn3)cc2)cc1Cl [Example 888, [1,2,3]Thiadiazole-4-carboxylic acid {4-[3-(3-chloro-4-methoxy-phenyl)-thioureido]-phenyl}-amide] |  |  |  |  | 0.06 (≈ 0.143 µM) | 6 (≈ 14.3 µM) | > 10 | 31
24 | CSc1ccc(NC(=S)Nc2ccc(NC(=O)c3ccco3)cc2)cc1Cl [Example 897, Furan-2-carboxylic acid {4-[3-(3-chloro-4-methylsulfanyl-phenyl)-thioureido]-phenyl}-amide] |  |  |  |  | 0.037 (≈ 0.0885 µM) | > 10 | > 10 | 62
25 | CN(C)c1ccc(NC(=S)Nc2ccc(NC(=O)c3csnn3)cc2)cc1Cl [Example 902, [1,2,3]Thiadiazole-4-carboxylic acid {4-[3-(3-chloro-4-dimethylamino-phenyl)-thioureido]-phenyl}-amide] |  |  |  |  | 0.12 (≈ 0.277 µM) | > 10 | > 10 | 10
26 | CN1CCC(N(C)c2ccc(NC(=S)Nc3ccc(NC(=O)c4csnn4)cc3)cc2Cl)CC1 [Example 904, [1,2,3]Thiadiazole-4-carboxylic acid [4-(3-{3-chloro-4-[methyl-(1-methyl-piperidin-4-yl)-amino]-phenyl}-thioureido)-phenyl]-amide] |  |  |  |  | 0.4 (≈ 0.775 µM) | 12 (≈ 23.3 µM) | > 10 | 58
27 | CN(c1ccc(NC(=S)Nc2ccc(NC(=O)c3csnn3)cc2)cc1Cl)C1CCN(Cc2ccccc2)C1 (stereo not drawn) [Example 905, [1,2,3]Thiadiazole-4-carboxylic acid [4-(3-{4-[(1-benzyl-pyrrolidin-3-yl)-methyl-amino]-3-chloro-phenyl}-thioureido)-phenyl]-amide] |  |  |  |  | 0.3 (≈ 0.519 µM) | 4 (≈ 6.92 µM) | 2 (≈ 3.46 µM) | 82
28 | COc1cc(C)c(Cl)cc1NC(=S)Nc1ccc(NC(=O)c2csnn2)cc1 [Example 907, [1,2,3]Thiadiazole-4-carboxylic acid {4-[3-(5-chloro-2-methoxy-4-methyl-phenyl)-thioureido]-phenyl}-amide] |  |  |  |  | 0.009 (≈ 0.0207 µM) | > 10 | > 10 | 36
29 | O=C(Nc1ccc(NC(=S)Nc2ccccc2)cc1)c1ccco1 [Example 911, Furan-2-carboxylic acid [4-(3-phenyl-thioureido)-phenyl]-amide] |  |  |  |  | 0.3 (≈ 0.889 µM) | > 10 | > 10 | 25
30 | O=C(Nc1ccc(NC(=S)Nc2ccccc2)cc1)c1csnn1 [Example 912, [1,2,3]Thiadiazole-4-carboxylic acid [4-(3-phenyl-thioureido)-phenyl]-amide] |  |  |  |  | 0.16 (≈ 0.45 µM) | > 10 | > 10 | 0
31 | CC(O)c1ccc(NC(=S)Nc2ccc(NC(=O)c3ccco3)cc2)cc1Cl (stereo not drawn) [Example 917, Furan-2-carboxylic acid (4-{3-[3-chloro-4-(1-hydroxy-ethyl)-phenyl]-thioureido}-phenyl)-amide] |  |  |  |  | 0.2 (≈ 0.481 µM) | 10 (≈ 24 µM) | > 10 | 
32 | Nc1cccc(NC(=S)Nc2ccc(NC(=O)c3csnn3)cc2)c1 [Example 918, [1,2,3]Thiadiazole-4-carboxylic acid {4-[3-(3-amino-phenyl)-thioureido]-phenyl}-amide] |  |  |  |  | 0.03 (≈ 0.081 µM) | > 10 | > 10 | 
33 | O=C(Nc1ccc(NC(=S)Nc2ccc(OC(F)(F)F)c(Br)c2)cc1)c1ccco1 [Example 919, Furan-2-carboxylic acid {4-[3-(3-bromo-4-trifluoromethoxy-phenyl)-thioureido]-phenyl}-amide] |  |  |  |  | 0.05 (≈ 0.0999 µM) | > 10 | > 10 | 
34 | O=C(Nc1ccc(NC(=S)Nc2cc(Cl)cc(Cl)c2)cc1)c1csnn1 [Example 921, [1,2,3]Thiadiazole-4carboxylic acid {4-[3-(3,5-dichloro-phenyl)-thioureido]-phenyl}-amide] |  |  |  |  | 0.05 (≈ 0.118 µM) | 8 (≈ 18.9 µM) | 7 (≈ 16.5 µM) | 85
